The source of these data is patent US10568827B2, “External dermal agent for reducing yellowish dullness” (Hayashibara Co., Ltd., priority 2015, dated 2020).

The target of this assay is carbonyl BSA (Bos taurus, UniProt P02769). The assay is described as follows: Carbonyl protein reduction test with carbonyl BSA model (OxyBlot dot blot). To be noted: for action of reducing carbonyl protein (carbonyl BSA): conclusion in words. The class given is biochemical, bovine. On the procedure:
A carbonyl protein, obtained by carbonylating bovine serum albumin (termed “BSA”, hereinafter), was prepared as a carbonyl protein model (termed “carbonyl BSA”, hereinafter) and used in this experiment.
In phosphate buffered saline (termed “PBS (-)”, hereinafter) containing 100 μM of sodium hypochlorite as a carbonyl initiator was dissolved BSA to give a final concentration of 40 mg/mL, followed by keeping the resulting solution at 37° C. overnight to form carbonyl BSA, as a carbonyl protein model, used as a substance to cause skin yellowness, and removing the remaining sodium hypochlorite with “AMICON ULTRA 10K”, a product name of ultrafiltration membrane, commercialized by Merck Millipore Corporation, Tokyo, Japan, to obtain a carbonyl BSA. In this experiment, the carbonyl BSA was used as a carbonyl protein model.
Based on Western blot analysis, the concentration of carbonyl BSA was assayed with dot blot method using a kit, “OxyBlot™ Protein Oxidation Detection Kit”, a product name of a kit for analyzing the oxidation level of protein, commercialized by Merck Millipore Corporation, Tokyo, Japan. The resulting measured values (emission intensity) were analyzed with “Image J”, an image processing software explored by National Institutes of Health (NIH), Maryland, USA. While, a PBS (-) solution (called “control”, hereinafter) containing carbonyl BSA, obtained similarly as in the above except for not using any of the test samples, was similarly measured as in the above, followed by determining the ratios of the measured values for those with the test samples against that of control. The results are in Table 1 and FIG. 1. […] The numerals in the table respectively show the ratios of carbonyl BSA when the test samples were respectively used alone against the measured value of carbonyl BSA, regarded as 1, for Control with no addition of any of the test samples.
The results are respectively in Tables 2 and 3 and FIGS. 2 and 3. The numerals with no symbol “%” in each table show ratios of carbonyl BSA obtained in such a manner of calculating the amount of carbonyl BSA for the system with either or both of the test samples that were respectively used alone or used in combination while regarding as one the amount of carbonyl BSA in each control system with no addition of any of the compositions containing glycosyl hesperetin or glycosyl naringenin.
Except for using any one of mannose, N-acetylglucosamine, “MALTOSE HHH” as a product name of maltose, raffinose, maltotetraose, and “TORNARE®” as a product name of glycosyl trehalose used as a cosmetic base material, which are shown in Table 4 below, in place of the composition containing glycosyl naringenin and the ascorbic acid 2-glucoside used in the above (4), and preparing it into a solution containing 0.1 w/v % of any of the above saccharide for use as a test solution for carbonyl protein reduction test, it was examined the carbonyl protein reduction action of the combination use the composition containing glycosyl hesperetin and any one of the above-identified saccharides similarly as in the above (4).
This experiment was conducted with organic acids and amino acids, which were focused on as compounds to be used with the composition containing glycosyl hesperetin.

[1] abbreviates: test—2 (Table 5), single use 0.1 w/v %, Control = 1.
[2] abbreviates: test—2, combination use of composition containing glycosyl hesperetin (0.1 w/v %) and the labelled saccharide (0.1 w/v %).
[3] abbreviates: test—3, composition containing glycosyl hesperetin (0.1 w/v %) in combination with the labelled organic acid or amino acid (0.1 w/v % as headed).
Setting [4] is: test—3, sole use of organic acid or amino acid (0.1 w/v % as headed), Control = 1.
Setting [5] is: sole use test, test sample 0.1 w/v %, carbonyl BSA:test sample 1:1 by mass, 37° C., 16 hours, Control (no addition) = 1.

Sequence of carbonyl BSA (P02769 25-607): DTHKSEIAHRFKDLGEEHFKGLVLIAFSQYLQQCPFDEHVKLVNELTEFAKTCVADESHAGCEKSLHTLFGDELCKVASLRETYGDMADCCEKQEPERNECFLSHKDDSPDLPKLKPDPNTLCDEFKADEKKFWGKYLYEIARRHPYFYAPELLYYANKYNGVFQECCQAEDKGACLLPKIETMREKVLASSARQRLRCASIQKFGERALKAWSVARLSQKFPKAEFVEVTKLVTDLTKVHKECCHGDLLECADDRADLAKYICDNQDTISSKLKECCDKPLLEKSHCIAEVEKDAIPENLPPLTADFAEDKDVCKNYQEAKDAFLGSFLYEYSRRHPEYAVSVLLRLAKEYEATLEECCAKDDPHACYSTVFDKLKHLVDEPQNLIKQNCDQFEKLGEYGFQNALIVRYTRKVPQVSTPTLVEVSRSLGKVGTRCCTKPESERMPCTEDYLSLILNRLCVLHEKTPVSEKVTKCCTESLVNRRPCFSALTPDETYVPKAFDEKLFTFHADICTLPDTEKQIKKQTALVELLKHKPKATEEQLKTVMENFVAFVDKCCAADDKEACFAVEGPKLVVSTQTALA

For the compound `OC[C@H]1O[C@H](O[C@H]2[C@H](O)[C@@H](O)C(O)O[C@@H]2CO)[C@H](O)[C@@H](O)[C@@H]1O` (mixture of isomers) [Maltose, maltose], the “Ratio of carbonyl BSA” value was 0.18 under setting [1] and 0.11 under setting [2].

`CC(O)C(=O)O` (stereo not drawn) [A, lactic acid]: the “Ratio of carbonyl BSA” value was 0.35 under setting [3] and 0.89 under setting [4].

Take `O=C(O)C(O)C(O)C(=O)O` (stereo not drawn) [B, tartaric acid]: the “Ratio of carbonyl BSA” value runs as follows: under setting [3], 0.51; under setting [4], 0.95.

`O=C(O)CC(O)(CC(=O)O)C(=O)O` [C, citric acid]: the “Ratio of carbonyl BSA” value reads like this: under setting [3], 0.52; under setting [4], 0.96.

In the case of `COc1cc(/C=C/C(=O)O)ccc1O` [E, ferulic acid], the “Ratio of carbonyl BSA” value is, setting by setting: under setting [3], 0.35; under setting [4], 0.82.

With `O=C[C@H](O)[C@@H](O)[C@H](O)[C@H](O)C(=O)O` [F, glucuronic acid], the “Ratio of carbonyl BSA” value under setting [3] was 0.16 and the “Ratio of carbonyl BSA” value under setting [4] was 1.01.

As to `O=C[C@H](O)[C@H]1OC(=O)[C@@H](O)[C@H]1O` [G, glucuronolactone], the “Ratio of carbonyl BSA” value was 0.49 under setting [3] and 1.07 under setting [4].

With `N[C@@H](CCC(=O)N[C@@H](CS)C(=O)NCC(=O)O)C(=O)O` [Glutathione (reduced form), reduced glutathione, reference compound], the “action of reducing carbonyl protein (carbonyl BSA)” value is “no action of reducing carbonyl protein”. Also, the “Ratio of carbonyl BSA” value under setting [5] came out at 1.19.

Regarding `CC(=O)O` [H, acetic acid], the “Ratio of carbonyl BSA” value under setting [3] was determined as 0.25 and the “Ratio of carbonyl BSA” value under setting [4] was found to be 1.08.

As for `C/C=C/C=C/C(=O)O` [I, sorbic acid], the “Ratio of carbonyl BSA” value is, setting by setting: under setting [3], 0.26; under setting [4], 1.04.

On to `O=C(O)c1ccccc1` [J, benzoic acid], for which the “Ratio of carbonyl BSA” value is recorded as 0.44 under setting [3] and 0.95 under setting [4].

For the compound `NCC(=O)O` [K, glycine], the “Ratio of carbonyl BSA” value is, setting by setting: under setting [3], 0.32; under setting [4], 0.71.

Turning to `N[C@@H](CCC(=O)[O-])C(=O)[O-].[Na+].[Na+]` [L, sodium glutamate], the “Ratio of carbonyl BSA” value is, setting by setting: under setting [3], 0.28; under setting [4], 0.77.

As for `O=C1O[C@H]([C@@H](O)CO)C(O)=C1O[C@H]1O[C@H](CO)[C@@H](O)[C@H](O)[C@H]1O` [L-Ascorbic acid 2-glucoside, L-ascorbic acid 2-glucoside, reference compound], the “Ratio of carbonyl BSA” value is 0.73 under setting [5] and 0.70 (test—1 (Tables 2, 3), single use, with no addition of the other ingredient, test sample 0.1 w/v %, Control = 1).

With `OC[C@H]1O[C@H](O[C@H]2[C@H](O)[C@@H](O)[C@@H](O[C@H]3[C@H](O)[C@@H](O)[C@@H](O[C@H]4[C@H](O)[C@@H](O)C(O)O[C@@H]4CO)O[C@@H]3CO)O[C@@H]2CO)[C@H](O)[C@@H](O)[C@@H]1O` (stereo partly drawn) [Maltotetraose, maltotetraose], the “Ratio of carbonyl BSA” value worked out at 0.71 under setting [1] and 0.13 under setting [2].

For the compound `CC(=O)N[C@H]1C(O)O[C@H](CO)[C@@H](O)[C@@H]1O` (stereo partly drawn) [N-Acetyl glucosamine], the “Ratio of carbonyl BSA” value is, setting by setting: under setting [1], 0.48; under setting [2], 0.79.

Regarding `NC(=O)c1cccnc1` [Niacinamide, niacinamide, reference compound], the “action of reducing carbonyl protein (carbonyl BSA)” value is “no action of reducing carbonyl protein”. Besides, under setting [5], the “Ratio of carbonyl BSA” value turned out to be 1.05.

Consider `OC[C@H]1O[C@H](OC[C@H]2O[C@H](O[C@]3(CO)O[C@H](CO)[C@@H](O)[C@@H]3O)[C@H](O)[C@@H](O)[C@@H]2O)[C@H](O)[C@@H](O)[C@H]1O` [Raffinose, raffinose], for which the “Ratio of carbonyl BSA” value runs as follows: under setting [1], 0.23; under setting [2], 0.54.
